Assay results published in publication PMC10835127, “Viruses traverse the human proteome through peptide interfaces that can be biomimetically leveraged for drug discovery” (Proceedings of the National Academy of Sciences of the …, 2024).
Read-outs that look alike come from different tables or passages of the source. No end group written: not given here.

Key:
HIV1 strain NL4-3 = format: cell-based; conditions: normalized mean of HIV1 replication readout
HCV replicon = format: cell-based; conditions: normalized mean of HCV replicon readout
[1] = system: F. novicida (strain U112); format: cell-based
influenza A H1N1 virus = conditions: 48 hr post-treatment, A549
EBV = conditions: for EBV Norm MEAN: normalized mean of EBV replication readout

| Substance | HIV1 Norm MEAN (HIV1 strain NL4-3) | HCV Norm MEAN (HCV replicon) | Francisella novicida Norm AUC [1] | Neuraminidase activity normalized to vehicle (influenza A H1N1 virus; 200 µM peptide) | Neuraminidase activity normalized to vehicle (influenza A H1N1 virus; 0,823 µM peptide) | Neuraminidase activity normalized to vehicle (influenza A H1N1 virus; 22,2 µM peptide) | Neuraminidase activity normalized to vehicle (influenza A H1N1 virus; 2,4691 µM peptide) | Neuraminidase activity normalized to vehicle (influenza A H1N1 virus; 7,4074 µM peptide) | Neuraminidase activity normalized to vehicle (influenza A H1N1 virus; 66,6667 µM peptide) | EBV Norm MEAN (EBV) | HIV1 Norm MEAN (HIV1 strain NL4-3; peptide screen) | HCV Norm MEAN (HCV replicon; peptide screen) | EBV Norm MEAN (EBV; peptide screen) | Francisella novicida Norm AUC ([1]; normalized area under the curve) | inhibition of EBV late gene reporter signal (EBV; 48 h, 20 µM) [%] |
| --- | --- | --- | --- | --- | --- | --- | --- | --- | --- | --- | --- | --- | --- | --- | --- |
| CPEP140: peptide of the viral peptide library; sequence page not shown (RKKRRQRRRA) | 1.188 | 0.5668 | 0.8228 | 0,616 | 0,9961 | 1,0982 | 1,0685 | 0,9007 | 1,0124 | 1.618 | – | – | – | – | – |
| LEDLL [CPEP131] | 2.616 | 0.1994 | 1.169 | 1,0859 | 1,0236 | 1,0471 | 1,0486 | 0,9867 | 1,1075 | 1.433 | – | – | – | – | – |
| DLYCYEQLNDSSEEE [CPEP55] | – | – | 1.147 | 1,025 | 0,8699 | 0,9333 | 0,9062 | 0,9392 | 1,0033 | – | 0.5362 | 0.7703 | 0.3423 | – | – |
| TRVESENKVVILDSFD [CPEP93] | – | – | 0.7068 | 1,1147 | 1,1071 | 1,1929 | 1,0829 | 1,1322 | 1,0883 | – | 10.6718 | 0.8288 | 1.069 | – | – |
| PVQES [CPEP44] | 2.9976 | 0.1889 | 0.7515 | 0,8825 | 0,8116 | 0,9052 | 0,843 | 0,7952 | 1,0152 | 1.192 | – | – | – | – | – |
| SEWQRDQFLSQVK [CPEP95] | 0.5103 | 0.2824 | – | 0,9927 | 0,9256 | 0,9538 | 0,9776 | 0,9237 | 1,0019 | 0.3991 | – | – | – | 1.114 | 60 |
| RRKAK [CPEP70] | 3.517 | 0.1385 | 0.442 | 1,0392 | 0,9822 | 0,9863 | 0,9261 | 0,9473 | 1,0254 | 1.652 | – | – | – | – | – |
| RDVLCLRPVGAESR [CPEP94] | – | – | 1.032 | 0,3954 | 0,7797 | 0,8926 | 0,8827 | 0,8423 | 0,695 | – | 0.3822 | 0.7235 | 0.9161 | – | – |
| GHRMAWDMMMNWSP [CPEP107] | – | – | 0.9779 | 0,108 | 0,7424 | 0,9099 | 0,9047 | 0,8224 | 0,2891 | – | 1.4249 | 0.9584 | 0.9961 | – | – |
| AAAVAFL [CPEP117] | 0.6808 | 0.1615 | 0.9738 | 0,72 | 0,8345 | 0,8782 | 0,8234 | 0,8773 | 0,8792 | 1.118 | – | – | – | – | – |
